For the experiment, the system named is HT1080 cells. The experiment is classed as cell-based, human. Conditions: read-out: IC50 (CPA assay; nM).

Molecules are shown by their SMILES. Square brackets hold non-standard residues; d marks the D form. Peptide text beside a SMILES is read from it. * marks the point of attachment. Dolaproine = CO[C@@H]([C@@H]1CCCN1)[C@@H](C)C(=O)O; Dil = CC[C@H](C)[C@H](NC)[C@@H](CC(=O)O)OC; X3 = C[C@@H](N*)[C@@H](O)c1ccccc1; NMeV = CN[C@H](C(=O)O)C(C)C

As a reminder, the IC50 is the point on the concentration scale where inhibition reaches its midpoint.

Consider `CC[C@H](C)[C@@H]([C@@H](CC(=O)N1CCC[C@H]1[C@H](OC)[C@@H](C)C(=O)N[C@H](C)[C@@H](O)c1ccccc1)OC)N(C)C(=O)[C@@H](NC(=O)[C@@H](NC)C(C)C)C(C)C` [MMAE, reference compound] (H-[NMeV]V[Dil][Dolaproine]-X3), for which the concentration for half-maximal inhibition (IC50) lay within 0.1 to 0.6 nM.

For the origin of these results see patent publication US10137202B2 (priority 2014, dated 2018).
